Test results from US20150342960A1, “DRUG COMBINATIONS FOR TREATMENT OF MELANOMA AND OTHER CANCERS” (Memorial Sloan Kettering Cancer Center, priority 2014, published 2015).
Where two headings read alike, the source gives them in different places.

Legend:
Format in all cases: cell-based
[1] = system: AKTpS473; assay: Western blot IC40 of downstream effector readout; settings: 40% inhibition of AKTpS473, Western Blot
Experimental: (§1) In total, cells were treated with 89 unique perturbations (Table 3). In paired combinations, each drug concentration was selected to inhibit the readout for the presumed target or the downstream effectors by 40% (IC40) as determined by Western Blot experiments. In single agent perturbations, each drug is applied at two different concentrations, IC40 and 2×IC40.

[2] = system: c-Myc; assay: c-Myc level by reverse phase protein arrays (RPPA); settings: Skmel133 cells, average of three replicates
Experimental: Proteomic response profiles to perturbations were measured using reverse phase protein arrays. The cells were lysed 24 hours after drug treatment. Three biological replicates were spotted for each sample (e.g., drug condition) on RPPA slides. Each slide was stained with the respective Ab and 138 proteomic entities (total or phosho levels) and were profiled using specific Abs with the RPPA (Table 3).
FIG. 14 depicts changes in c-Myc levels in response to perturbations in Skmel133 cells as measured in RPPA experiments. Each data point was log normalized with respect to the c-Myc level in unperturbed condition. c-Myc level was highest in the presence of CDK4i. Various drug combinations that included STAT3 and mTOR inhibitors follow CDK4i combinations. cMyc level was lowest when cells were perturbed with MEK, BRAF, SRC, PKC and HDAC inhibitors, respectively. Each data-point is the average of RPPA readouts from three replicates.

[3] = system: P27/Kip1; assay: Western blot IC40 of downstream effector readout; settings: IC40 on P27/Kip1 readout
Experimental: as §1

[4] = system: SkMel133 cells; assay: Cell viability, resazurin assay; settings: for Emax: read-out: maximal effect level (Amax, response to the drugs at highest doses)
Experimental: RAFi resistant melanoma cell line SkMel133 was used in all perturbation experiments. SkMel133 cells were perturbed with 12 targeted drugs applied as single agents or in paired combinations.
All phenotypic measurements were made in perturbation conditions identical to those in proteomic measurements. Cell viability and cell cycle progression were measured 72 hours after drug treatment using the Resazurin assay and flow cytometry analysis respectively. The percentage of cells in the G1, G2/M, and S phases and sub-G1 fraction were recorded based on the respective distribution of DNA content in each phase.

[5] = system: SkMel133 cells; assay: Cell cycle progression, flow cytometry; settings: for cells in G1 stage: 24 hours after treatment, 39% when not treated
Experimental: All phenotypic measurements were made in perturbation conditions identical to those in proteomic measurements. […] The percentage of cells in the G1, G2/M, and S phases and sub-G1 fraction were recorded based on the respective distribution of DNA content in each phase.

[6] = system: SkMel133 cells; assay: Apoptotic response of melanoma cells; settings: 48 hours after treatment; 3% in unperturbed cells
Experimental: Finally, the cell cycle progression and apoptotic response of melanoma cells to JQ1 were measured. JQ1 (500 nM) induces a 50% increase in cells at G1-phase compared to the unperturbed cells (FIG. 8). […] More specifically, FIG. 8 depicts cell cycle arrest response of melanoma cells to JQ1 and MEKi combination. 51% and 88% of cells are in G1 stage 24 hours after JQ1 and MEKi treatment, respectively. JQ1+MEKi combination has an increased effect on G1 cell cycle arrest (G1=92%). 39% of cells are in G1 when they are not treated with drugs (error bars in right panel: ±SE in 3 biological replicates).

[7] = system: c-Myc; assay: Western blot of c-Myc expression; settings: SkMel133, western blot, 24 hours after drug treatment
Excerpt: First, it was postulated whether c-Myc levels in SkMel133 cells could be targeted using JQ1. […] Therefore, total c-Myc levels are targeted using JQ1, either as a single agent or in combination with inhibitors of the RAF/MEK/ERK pathway.

[8] = system: BRD4; assay: Western blot of BRD4 level; settings: 24 hours after JQ1 treatment
Experimental: FIGS. 6A-6E illustrate the combined targeting of c-Myc with MEK and BRAF leads to synergistic response in melanoma cells. […] The leftward shift of isocurves implies synergistic interactions between the applied perturbations. u denotes strength of in silico perturbations. […] The BRD4 level is unchanged in response to JQ1 treatment. […] C-Myc expression is targeted with BRD4 inhibitor, JQ1. […] Cell viability is measured using the resazurin assay. […] The combination index (CI) calculated using the drug dose response curves quantifies the drug interactions between JQ1, MEKi and RAFi (left panel). CI for a given level of inhibition is a measure of the fractional shift between the combination doses (C1 and C2) and the single agent's inhibitory concentration (Cx,1, Cx,2). It is formulated as CI=(C1/Cx,1)[…](C2/Cx,2). Amax is the response of melanoma cells to JQ1, MEKi and RAFi at highest doses applied (right panel). 1-Amax is the fraction of cells alive in response to highest drug dose normalized with respect to the non-drug treated condition. […] 86% of cells are in G1 state 48 hours after JQ1 treatment, while 42% of the cells are in G1 state before drug treatment (error bars: ±SEM in 3 biological replicates).

[9] = system: 4EBP1pS65; assay: Western blot IC40 of downstream effector readout; settings: 40% inhibition of 4EBP1pS65, Western Blot
Experimental: as §1

[10] = system: GSK3pS21; assay: Western blot IC40 of downstream effector readout; settings: 40% inhibition of GSK3pS21, Western Blot
Experimental: as §1

[11] = system: MAPK1pT202; assay: Western blot IC40 of downstream effector readout; settings: 40% inhibition of MAPK1pT202, Western Blot
Experimental: as §1

[12] = system: S6pS240; assay: Western blot IC40 of downstream effector readout; settings: 40% inhibition of S6pS240, Western Blot
Experimental: as §1

[13] = system: STAT3pY705; assay: Western blot IC40 of downstream effector readout; settings: 40% inhibition of STAT3pY705, Western Blot
Experimental: as §1

[14] = SkMel133, highest doses applied, normalized to non-drug treated condition

O=c1[nH]c2ccccc2n1C1CCN(Cc2ccc(-c3nc4cc5nc[nH]c5cc4nc3-c3ccccc3)cc2)CC1 [AKTi 1/2]
Dose 1 (IC40 of downstream effector readout) [1]: 5.000 nM

O=C(CCCCCCSc1ccc2ccccc2c1)NO [HNHA]
c-Myc level relative to unperturbed condition [2]: lowest | Dose 1 (IC40 of downstream effector readout) [3]: 6,000 nM

Cc1sc2c(c1C)C(c1ccc(Cl)cc1)=N[C@@H](CC(=O)OC(C)(C)C)c1nnc(C)n1-2 [JQ1]
IC50 ([4]; SkMel133, combined with 5 nM MEK inhibitor, read-out: concentration of JQ1 reducing viability by 50%): 100 nM | maximal effect level (Amax, response to the drugs at highest doses) [4, 14]: 10% | IC50 ([4]; SkMel133, single agent, read-out: cell viability IC50): 200 nM | cells in G1 stage [5]: 51% | cells in G1 state ([5]; 48 hours after treatment, 42% before drug treatment): 86% | increase in cells at G1-phase compared to the unperturbed cells ([5]; JQ1 500 nM): 50% | apoptosis [6]: 11% | c-Myc expression [7]: reduced | BRD4 level [8]: unchanged

COc1ccc(C2=NC(c3ccc(Cl)cc3)C(c3ccc(Cl)cc3)N2C(=O)N2CCNC(=O)C2)c(OC(C)C)c1 (stereo not shown) [Nutlin]
Dose 1 (IC40 of downstream effector readout) [9]: 3,000 nM

CC(C)(C)c1nc2c3cc[nH]c(=O)c3c3cc(F)ccc3c2[nH]1 [P6]
Dose 1 (IC40 of downstream effector readout) [10]: 20 nM

O=C(NOC[C@H](O)CO)c1ccc(F)c(F)c1Nc1ccc(I)cc1F [PD0325901]
Emax [4, 14]: 13% | cells in G1 stage [5]: 88% | c-Myc level relative to unperturbed condition [2]: lowest | Dose 1 (IC40 of downstream effector readout) [11]: 1.5 nM

CCCS(=O)(=O)Nc1ccc(F)c(C(=O)c2c[nH]c3ncc(Cl)cc23)c1F [PLX4720]
IC50 ([4]; RAFi resistant SkMel133 cells, single agent, read-out: IC50 for single agent): > 1000 nM | IC50 ([4]; SkMel133, combined with JQ1 (120 nM), read-out: concentration of RAFi reducing cell viability by 50%): 120 nM | Emax [4, 14]: 12% | c-Myc level relative to unperturbed condition [2]: lowest | Dose 1 (IC40 of downstream effector readout) [11]: 60 nM

Cn1cc(C2=C(c3cn(CCCN)c4ccccc34)C(=O)NC2=O)c2ccccc21 [RO-31-7549]
c-Myc level relative to unperturbed condition [2]: lowest | Dose 1 (IC40 of downstream effector readout) [12]: 3500 nM

O=[N+]([O-])c1ccc2c(c1)S(=O)(=O)C=C2 [Stattic]
Dose 1 (IC40 of downstream effector readout) [13]: 600 nM

CO[C@H]1C[C@@H]2CC[C@@H](C)[C@@](O)(O2)C(=O)C(=O)N2CCCC[C@H]2C(=O)O[C@H]([C@H](C)C[C@@H]2CC[C@@H](OC(=O)C(C)(CO)CO)[C@H](OC)C2)CC(=O)[C@H](C)/C=C(\C)[C@@H](O)[C@@H](OC)C(=O)[C@H](C)C[C@H](C)/C=C/C=C/C=C/1C [Temsirolimus]
Dose 1 (IC40 of downstream effector readout) [12]: 0.3 nM

FC(F)c1nc2ccccc2n1-c1nc(N2CCOCC2)nc(N2CCOCC2)n1 [ZSTK474]
Dose 1 (IC40 of downstream effector readout) [1]: 600 nM
